Assays:
CCRF-CEM = assay: NCI-60 SRB screen: leukemia CCRF-CEM; type: cell-based; conditions: Homo sapiens, 48 h
HL-60(TB) = assay: NCI-60 SRB screen: leukemia HL-60(TB); type: cell-based; conditions: Homo sapiens, 48 h, HL-60(TB)
K-562 = assay: NCI-60 SRB screen: leukemia K-562; type: cell-based, human; conditions: K-562
MOLT-4 = assay: NCI-60 SRB screen: leukemia MOLT-4; type: cell-based; conditions: Homo sapiens, 48 h, MOLT-4
RPMI-8226 = assay: NCI-60 SRB screen: leukemia RPMI-8226; type: cell-based; conditions: Homo sapiens, 48 h, RPMI-8226
A549/ATCC = assay: NCI-60 SRB screen: non-small cell lung cancer A549/ATCC; type: cell-based, human; conditions: A549/ATCC
EKVX = assay: NCI-60 SRB screen: non-small cell lung cancer EKVX; type: cell-based, human
HOP-92 = assay: NCI-60 SRB screen: non-small cell lung cancer HOP-92; type: cell-based, human; conditions: HOP-92
NCI-H23 = assay: NCI-60 SRB screen: non-small cell lung cancer NCI-H23; type: cell-based, human; conditions: NCI-H23
NCI-H322M = assay: NCI-60 SRB screen: non-small cell lung cancer NCI-H322M; type: cell-based, human
NCI-H460 = assay: NCI-60 SRB screen: non-small cell lung cancer NCI-H460; type: cell-based; conditions: Homo sapiens, 48 h, NCI-H460
NCI-H522 = assay: NCI-60 SRB screen: non-small cell lung cancer NCI-H522; type: cell-based, human; conditions: NCI-H522
HCC-2998 = assay: NCI-60 SRB screen: colon cancer HCC-2998; type: cell-based, human; conditions: HCC-2998
HT29 = assay: NCI-60 SRB screen: colon cancer HT29; type: cell-based; conditions: Homo sapiens, HT29
KM12 = assay: NCI-60 SRB screen: colon cancer KM12; type: cell-based, human; conditions: KM12
SF-295 = assay: NCI-60 SRB screen: CNS cancer SF-295; type: cell-based, human; conditions: SF-295
SF-539 = assay: NCI-60 SRB screen: CNS cancer SF-539; type: cell-based, human; conditions: SF-539
SNB-19 = assay: NCI-60 SRB screen: CNS cancer SNB-19; type: cell-based, human; conditions: SNB-19
M14 = assay: NCI-60 SRB screen: melanoma M14; type: cell-based, human; conditions: M14
MDA-MB-435 = assay: NCI-60 SRB screen: melanoma MDA-MB-435; type: cell-based, human; conditions: MDA-MB-435
UACC-257 = assay: NCI-60 SRB screen: melanoma UACC-257; type: cell-based, human; conditions: UACC-257
IGROV1 = assay: NCI-60 SRB screen: ovarian cancer IGROV1; type: cell-based, human; conditions: IGROV1
OVCAR-4 = assay: NCI-60 SRB screen: ovarian cancer OVCAR-4; type: cell-based; conditions: Homo sapiens; OVCAR-4; five concentrations, 48 h, SRB; read-out: GI50
OVCAR-5 = assay: NCI-60 SRB screen: ovarian cancer OVCAR-5; type: cell-based, human; conditions: OVCAR-5
A498 = assay: NCI-60 SRB screen: renal cancer A498; type: cell-based, human; conditions: A498
ACHN = assay: NCI-60 SRB screen: renal cancer ACHN; type: cell-based, human
RXF 393 = assay: NCI-60 SRB screen: renal cancer RXF 393; type: cell-based, human; conditions: RXF 393
SN12C = assay: NCI-60 SRB screen: renal cancer SN12C; type: cell-based, human
UO-31 = assay: NCI-60 SRB screen: renal cancer UO-31; type: cell-based, human; conditions: UO-31
PC-3 = assay: NCI-60 SRB screen: prostate cancer PC-3; type: cell-based, human; conditions: PC-3
DU-145 = assay: NCI-60 SRB screen: prostate cancer DU-145; type: cell-based, human; conditions: DU-145
MDA-MB-468 = assay: NCI-60 SRB screen: breast cancer MDA-MB-468; type: cell-based, human
[1] = test system: 60 human tumor cell lines; conditions: single dose 10 µM
Leukemia subpanel = assay: NCI-60 screen, subpanel Leukemia
Melanoma subpanel = assay: NCI-60 screen, subpanel Melanoma
NSCL cancer subpanel = assay: NCI-60 screen, subpanel NSCL cancer
Renal Cancer subpanel = assay: NCI-60 screen, subpanel Renal Cancer
[2] = single dose 10 µM, read-out: Percentage Cell Growth
[3] = five concentrations, SRB, read-out: GI50
[4] = Homo sapiens, five concentrations, 48 h, SRB, read-out: GI50

`C=C(C)[C@@H]1CC[C@]2(C(=O)NCCCN)CC[C@]3(C)[C@H](CC[C@@H]4[C@@]5(C)CCC(=O)C(C)(C)[C@@H]5CC[C@]43C)[C@@H]12` [Compound 10] showed an activity at 10 µM (CCRF-CEM; [2]) of 1.39%, a GI50 (CCRF-CEM; [3]) of 22.1 µM and an activity at 10 µM (HL-60(TB); [2]) of 1.25%. For the same molecule, the GI50 (HL-60(TB); [3]) was 16.5 µM, the GI50 (K-562; Homo sapiens, K562, five concentrations, 48 h, SRB, read-out: GI50) was 9.84 µM and the “Percentage Cell Growth” value (K-562; single dose 10 µM) was 1.10%. The activity at 10 µM (MOLT-4; [2]) was 2.76%, the GI50 (MOLT-4; [3]) was 12.9 µM and the activity at 10 µM (RPMI-8226; [2]) was -6.66%. The GI50 (RPMI-8226; [3]) was 17.2 µM, the “Percentage Cell Growth” value (A549/ATCC; single dose 10 µM) was −4.70% and the GI50 (A549/ATCC; [4]) was 19.6 µM. For the same molecule, the GI50 (EKVX; [4]) was 23.3 µM, the “Percentage Cell Growth” value (EKVX; single dose 10 µM) was −15.68% and the “Percentage Cell Growth” value (HOP-92; single dose 10 µM) was −55.49%. The GI50 (HOP-92; [4]) was 10.8 µM, the GI50 (NCI-H23; [4]) was 22.6 µM and the “Percentage Cell Growth” value (NCI-H23; single dose 10 µM) was −8.47%. For the same molecule, the GI50 (NCI-H322M; [4]) was 17.6 µM, the “Percentage Cell Growth” value (NCI-H322M; single dose 10 µM) was −68.83% and the activity at 10 µM (NCI-H460; [2]) was -43.2%. The GI50 (NCI-H460; [3]) was 14 µM, the GI50 (NCI-H522; [4]) was 21 µM and the “Percentage Cell Growth” value (NCI-H522; single dose 10 µM) was −16.98%. The “Percentage Cell Growth” value (HCC-2998; single dose 10 µM) was −23.40%, the GI50 (HCC-2998; [4]) was 21.4 µM and the activity at 10 µM (HT29; HT-29, 48 h, single dose 10 µM, read-out: Percentage Cell Growth) was 3.9%. The GI50 (HT29; HT-29, five concentrations, 48 h, SRB, read-out: GI50) was 6.95 µM, the GI50 (KM12; [4]) was 17.3 µM and the “Percentage Cell Growth” value (KM12; single dose 10 µM) was −25.31%. For the same molecule, the GI50 (SF-295; [4]) was 22.6 µM, the “Percentage Cell Growth” value (SF-295; single dose 10 µM) was −26.39% and the GI50 (SF-539; [4]) was 17.9 µM. For the same molecule, the “Percentage Cell Growth” value (SF-539; single dose 10 µM) was −36.20%, the GI50 (SNB-19; [4]) was 24.7 µM and the “Percentage Cell Growth” value (SNB-19; single dose 10 µM) was −29.49%. For the same molecule, the GI50 (M14; [4]) was 24.7 µM, the “Percentage Cell Growth” value (M14; single dose 10 µM) was 5.07% and the GI50 (MDA-MB-435; [4]) was 28.7 µM. The “Percentage Cell Growth” value (MDA-MB-435; single dose 10 µM) was −32.41%, the GI50 (UACC-257; [4]) was 20.6 µM and the “Percentage Cell Growth” value (UACC-257; single dose 10 µM) was −46.67%. The GI50 (IGROV1; Homo sapiens, IGROV-1, five concentrations, 48 h, SRB, read-out: GI50) was 21.5 µM, the “Percentage Cell Growth” value (IGROV1; single dose 10 µM) was −6.94% and the GI50 (OVCAR-4) was 25.6 µM. For the same molecule, the GI50 (OVCAR-5; [4]) was 14.8 µM, the “Percentage Cell Growth” value (OVCAR-5; single dose 10 µM) was −47.68% and the “Percentage Cell Growth” value (A498; single dose 10 µM) was −44.82%. The GI50 (A498; [4]) was 22.9 µM, the GI50 (ACHN; [4]) was 21.7 µM and the “Percentage Cell Growth” value (ACHN; single dose 10 µM) was −49.24%. The GI50 (RXF 393; [4]) was 17.1 µM, the “Percentage Cell Growth” value (RXF 393; single dose 10 µM) was −42.28% and the GI50 (SN12C; [4]) was 20.8 µM. The “Percentage Cell Growth” value (SN12C; single dose 10 µM) was −34.74%, the GI50 (UO-31; [4]) was 38.9 µM and the “Percentage Cell Growth” value (UO-31; single dose 10 µM) was −34.32%. For the same molecule, the GI50 (PC-3; [4]) was 12.6 µM, the “Percentage Cell Growth” value (PC-3; single dose 10 µM) was −53.78% and the “Percentage Cell Growth” value (DU-145; single dose 10 µM) was −100.00%. For the same molecule, the GI50 (DU-145; [4]) was 17.5 µM, the GI50 (MDA-MB-468; [4]) was 12.6 µM and the “Percentage Cell Growth” value (MDA-MB-468; single dose 10 µM) was −19.87%. For the same molecule, the “cancer cell lethality, range of percentage growth” value ([1]; cell lines with negative growth) was −2.14% to −100%, the “cases of cancer cell lethality” value ([1]; number of cell lines) was 48 and the “MID b, average sensitivity of all cell line of particular subpanel” value (from here on “MID b, average sensitivity”) (Leukemia subpanel) was 14.59 µM. The “Selectivity, ratio MID a: MID b” value (Leukemia subpanel) was 1.40, the “MID b, average sensitivity” value (Melanoma subpanel) was 24.33 µM and the “Selectivity, ratio MID a: MID b” value (Melanoma subpanel) was 0.84. The “MID b, average sensitivity” value (NSCL cancer subpanel) was 18.71 µM, the “Selectivity, ratio MID a: MID b” value (NSCL cancer subpanel) was 1.09 and the “MID b, average sensitivity” value (Renal Cancer subpanel) was 23.80 µM. For the same molecule, the “Selectivity, ratio MID a: MID b” value (Renal Cancer subpanel) was 0.86.

— article PMC7587962, “Evaluation of Cytotoxicity and α-Glucosidase Inhibitory Activity of Amide and Polyamino-Derivatives of Lupane Triterpenoids” (Molecules, 2020)
